In test [1] the test system is aortic rings precontracted by phenylephrine. As to the kind of experiment: relaxant effect on aortic rings precontracted by phenylephrine. On the set-up: species or system spontaneously hypertensive rats. The note with it: 100 micro-molar each component, final concentration in organ chamber; SHR aortic rings precontracted by phenylephrine (1 micromolar); n=8. How it is done:
Relaxant Effect on Aortic Rings of the Compounds Tested. The objective of this study was to investigate the vasoarelaxation effects of the compositions of the invention using isolated aorta from spontaneously hypertensive rats. The compounds tested were used at a concentration expressed as final concentration in the organ chamber. Male spontaneously hypertensive rats (SHR) 10-12 weeks old, weighing 250-300 g, were housed at 24±2° C. with 60±20% relative humidity, on a 12-h light-dark cycle. Rats were given free access to a diet of standard food and water. All experiments were performed according to the guidelines for the ethical treatment of animals of the European Union. The rats were killed by cervical dislocation and the aortae were rapidly dissected. The descending thoracic aorta was placed in a modified Krebs-Henseleit solution (PSS) containing (mM): NaCl 118, KCl 4.75, NaHCO3 25, MgSO4 1.2, CaCl2 1.8, KH2PO4 1.2 and glucose 11. After excess fat and connective tissue were removed, the aortae were cut into 2-3-mm rings. Aortic rings were mounted under a basal tension of 2 g in 20 mL organ baths containing PSS and attached to an isometric transducer (Harvard UF-1); the signal was recorded by a Powerlab data acquisition system (AD-Instruments). The tissue bath was maintained at 37° C. and bubbled with a 95% O2 and 5% CO2 gas mixture. The relaxant effect of compounds tested was assessed by adding the compound to aortic rings precontracted by phenylephrine (1 micromolar). After the aortae were contracted with phenylephrine and when the contractile response was reached, the test compound was added to the bath. All the results were expressed as a percentage of the maximal contraction of phenylephrine-induced responses. Results are expressed as percentages from the initial precontraction level. The significance was calculated on the actual contraction values means±SE (n=8 aorta preparations per group). Eight preparations were studied from a single aorta. The Student t-test was used as the comparison test for statistical analysis.

Test [2] relates to croton oil-induced hemorrhoid model in rats. Description: croton oil-induced hemorrhoid model in rats (recto-anus coefficient). In kind it is in vivo, rat. To be noted: 24 hours after induction with croton oil (3%); oral once per day for five days; 20 mg/kg propionyl L-carnitine or L-carnitine, 30 mg/kg troxerutine, diosmine or hesperidine; RAC = weight of recto-anus (mg)/body weight (g); n = 5 rats. How it is done: Reduction of the Swelling of the Recto-Anus, in Croton Oil-Induced Hemorrhoid Model in Rats.
Male SD rats (6 weeks old, approximately 140 g) were purchased from Harlan Sprague Dawley and allowed to acclimate for 1 week. The rats were maintained in a pathogen-free facility in accordance with the National Research Council of Laboratory Animal care and use guidelines. Each experiment was preformed with age-matched rats 7-8 weeks old. The croton oil-induced hemorrhoid model in rats was performed according to the method published by Nishiki (Nishiki et al. (1988) Folia Pharmacology Japan 92:215-225; Nishiki et al. (1988) Folia Pharmacol. Japan 92:227-240). Briefly, a cotton swab with a diameter of 4 mm soaked with 0.16 mL of inducer (deionized water: pyridine: ethyl ether: 6% croton oil/ethyl ether (1:4:5:10) was applied to the rat's anus for 12 seconds. The final concentration of croton oil was 3%. The edema developed linearly until 7-8 hours after application and the severity of the edema was sustained for more than 24 hours. Twenty-four hours later, recto-anus tissue (approx. 10 mm long) was isolated after the rats were euthanized. The weights of rat body and recto-anus were measured. The recto-anus coefficient (RAC) was calculated using the formula: weight of recto-anus (mg)/body weight (g).
The compounds of the invention were administered orally suspended in saline (1 mL) once per day for five days. Last treatment with the compounds of the invention was made the day of induction of oedema with croton oil.
The compounds of the invention were administered alone or in combination at the following doses: 20 mg/kg propionyl L-carnitine or L-carnitine; 30 mg/kg troxerutine, diosmine or hesperidine.
Twenty-four hours after hemorrhoid induction with croton oil the RAC of rats was determined.

Take `COc1ccc([C@@H]2CC(=O)c3c(O)cc(O[C@@H]4O[C@H](CO[C@@H]5O[C@@H](C)[C@H](O)[C@@H](O)[C@H]5O)[C@@H](O)[C@H](O)[C@H]4O)cc3O2)cc1O` [Hesperidine, hesperidine]: the “% RELAXATION” value in test [1] came out at 9%. Further, the “RAC (recto-anus coefficient)” value in test [2] turned out to be 2.07.
On the same counts, the results for `C[N+](C)(C)C[C@H](O)CC(=O)[O-]` [L-carnitine] are 25% and 1.99.
On the same counts, the results for `CCC(=O)O[C@H](CC(=O)[O-])C[N+](C)(C)C` [Propionyl L-carnitine, propionyl L-carnitine] are 28% and 1.96.
On the same counts, the results for `C[C@@H]1O[C@@H](OC[C@H]2O[C@@H](Oc3c(-c4ccc(OCCO)c(OCCO)c4)oc4cc(OCCO)cc(O)c4c3=O)[C@H](O)[C@@H](O)[C@@H]2O)[C@H](O)[C@H](O)[C@H]1O` [Troxerutine] are 10% and 2.11.
With `COc1ccc(-c2cc(=O)c3c(O)cc(O[C@@H]4O[C@H](CO[C@@H]5O[C@@H](C)[C@H](O)[C@@H](O)[C@H]5O)[C@@H](O)[C@H](O)[C@H]4O)cc3o2)cc1O` [Diosmine, diosmine], the “% RELAXATION” value in test [1] came out at 10%. Besides, in test [2], the “RAC (recto-anus coefficient)” value came out at 2.02.

These data come from patent publication US20130005670A1, “COMBINATION COMPOSITION, COMPRISING AS ACTIVE INGREDIENTS L-CARNITlNE OR PROPIONYL L-CARNITlNE, FOR THE PREVENTION OR TREATMENT OF CHRONIC VENOUS INSUFFICIENCY” (SIGMA-TAU INDUSTRIE FARMACEUTICHE RIUNITE S.P.A., priority 2010, published 2013).
